These results are taken from ChEMBL document CHEMBL1201862, “PubChem BioAssay data set” (2004).

Calls of active or inactive are those of the source.

Assay [1] concerns the target T1, Tyrosyl-DNA phosphodiesterase 2 (Homo sapiens, UniProt O95551).
T1 sequence (O95551 whole entry): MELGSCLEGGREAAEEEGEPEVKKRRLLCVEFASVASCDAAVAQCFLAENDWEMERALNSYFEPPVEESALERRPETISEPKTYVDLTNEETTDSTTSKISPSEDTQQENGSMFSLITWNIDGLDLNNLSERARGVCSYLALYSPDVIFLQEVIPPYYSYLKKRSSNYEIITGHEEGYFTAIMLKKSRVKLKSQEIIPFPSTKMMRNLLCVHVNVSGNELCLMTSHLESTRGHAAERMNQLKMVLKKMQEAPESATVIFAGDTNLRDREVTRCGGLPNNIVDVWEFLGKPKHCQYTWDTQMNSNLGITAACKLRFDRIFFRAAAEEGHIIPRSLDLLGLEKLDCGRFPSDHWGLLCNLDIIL
In words: human TDP2 enzyme inhibitors, dose response, biochemical, epi absorbance, IC50 (AID 743297).

Assay [2] deals with Serine/threonine-protein kinase 17A (Homo sapiens, UniProt Q9UEE5). Type of assay: functional.
The target of assay [3] is Dual specificity tyrosine-phosphorylation-regulated kinase 3 (Homo sapiens, UniProt O43781). Type of assay: functional.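 Also: measured as one member of a broad kinase panel.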
In assay [4] the target is MAP kinase-activated protein kinase 5 (Homo sapiens, UniProt Q8IW41). Type of assay: functional.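 Also: measured as one member of a kinome panel.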
In assay [5] the target is Fibroblast growth factor receptor 3 (Homo sapiens, UniProt P22607). It is filed as functional.
In assay [6] the target is Tyrosine-protein kinase JAK2 (Homo sapiens, UniProt O60674). It is filed as functional.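 Also: JAK2 tested as one member of a kinase panel.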
In assay [7] the target is Serine/threonine-protein kinase TBK1 (Homo sapiens, UniProt Q9UHD2). Put plainly: Navigating the Kinome. Panel member name: TBK1. It is filed as functional.
Assay [8] concerns the target Tyrosine-protein kinase SYK (Homo sapiens, UniProt P43405). It is filed as functional.
Assay [9] addresses Insulin-like growth factor 1 receptor (Homo sapiens, UniProt P08069). Put plainly: Navigating the Kinome. Panel member name: IGF1R. Type of assay: functional.
The target of assay [10] is Protein kinase C gamma type (Homo sapiens, UniProt P05129). Type of assay: functional.
The target of assay [11] is Tyrosine-protein kinase Lyn (Homo sapiens, UniProt P07948). It is filed as functional.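 Also: lyn as one member of a kinase panel.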
Assay [12] concerns the target Mitogen-activated protein kinase 12 (Homo sapiens, UniProt P53778). It is filed as functional.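 Also: measured as one member of a kinome-wide kinase profiling panel.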
In assay [13] the target is Glycogen synthase kinase-3 alpha (Homo sapiens, UniProt P49840). Type of assay: functional.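 Also: GSK3A result taken from a broad kinome-wide kinase panel.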
Assay [14] concerns the target cAMP-dependent protein kinase catalytic subunit alpha (Homo sapiens, UniProt P17612). It is filed as functional.
In assay [15] the target is Macrophage colony-stimulating factor 1 receptor (Homo sapiens, UniProt P07333). Type of assay: functional.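 Also: value comes from the Navigating the Kinome screening panel, CSF1R member.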
In assay [16] the target is Calcium/calmodulin-dependent protein kinase type II subunit gamma (Homo sapiens, UniProt Q13555). It is filed as functional.
For assay [17], the target named is Cyclin-dependent kinase 8 (Homo sapiens, UniProt P49336). In words: Navigating the Kinome. Panel member name: CDK8. Type of assay: functional.
The target in assay [18] is Casein kinase I isoform alpha (Homo sapiens, UniProt P48729). It is filed as functional.
Assay [19] concerns the target Cyclin-dependent kinase 2 (Homo sapiens, UniProt P24941). Type of assay: functional.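 Also: CDK2 measured as one member of a broad kinome profiling panel.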
The target of assay [20] is Dual specificity protein kinase CLK4 (Homo sapiens, UniProt Q9HAZ1). Type of assay: functional.
Dual specificity protein kinase CLK4, sequence (Q9HAZ1 whole entry): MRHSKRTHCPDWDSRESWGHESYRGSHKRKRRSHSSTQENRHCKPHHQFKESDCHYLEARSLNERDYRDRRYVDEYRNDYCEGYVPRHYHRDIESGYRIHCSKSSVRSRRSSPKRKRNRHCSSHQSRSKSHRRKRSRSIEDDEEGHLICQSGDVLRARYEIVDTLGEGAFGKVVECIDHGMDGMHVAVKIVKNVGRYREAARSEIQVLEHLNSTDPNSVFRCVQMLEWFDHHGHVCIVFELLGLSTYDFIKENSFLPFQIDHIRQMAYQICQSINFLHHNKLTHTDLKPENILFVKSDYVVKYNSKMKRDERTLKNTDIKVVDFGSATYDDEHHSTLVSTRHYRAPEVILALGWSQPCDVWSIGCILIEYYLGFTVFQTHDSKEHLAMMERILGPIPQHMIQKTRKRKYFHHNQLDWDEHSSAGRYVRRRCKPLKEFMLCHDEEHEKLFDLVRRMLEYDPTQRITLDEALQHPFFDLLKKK
In assay [21] the target is Mast/stem cell growth factor receptor Kit (Homo sapiens, UniProt P10721). It is filed as functional.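 Also: KIT entry within a kinase panel assay.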
Assay [22] deals with Mitogen-activated protein kinase 1 (Homo sapiens, UniProt P28482). Type of assay: functional.
Mitogen-activated protein kinase 1, sequence (P28482 whole entry): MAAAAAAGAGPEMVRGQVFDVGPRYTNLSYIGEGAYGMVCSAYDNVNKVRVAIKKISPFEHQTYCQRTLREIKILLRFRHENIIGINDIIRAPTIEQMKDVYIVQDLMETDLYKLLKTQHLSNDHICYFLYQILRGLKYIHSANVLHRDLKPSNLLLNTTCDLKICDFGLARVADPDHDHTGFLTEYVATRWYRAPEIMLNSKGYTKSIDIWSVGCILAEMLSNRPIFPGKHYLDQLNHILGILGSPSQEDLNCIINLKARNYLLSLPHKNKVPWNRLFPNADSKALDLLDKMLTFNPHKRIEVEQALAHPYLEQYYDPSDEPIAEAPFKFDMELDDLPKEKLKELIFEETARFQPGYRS
The target of assay [23] is Receptor tyrosine-protein kinase erbB-4 (Homo sapiens, UniProt Q15303). It is filed as functional.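 Also: ERBB4 member of a kinome-wide kinase profiling panel.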
Assay [24] addresses Serine/threonine-protein kinase D2 (Homo sapiens, UniProt Q9BZL6). Type of assay: functional.
A further assay has as its target SRSF protein kinase 1 (Homo sapiens, UniProt Q96SB4). It is filed as functional.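 Also: measured as one member of a kinome-wide kinase profiling panel.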
Assay [25] deals with Tyrosine-protein kinase JAK3 (Homo sapiens, UniProt P52333). It is filed as functional.
The target of assay [26] is Leukocyte tyrosine kinase receptor (Homo sapiens, UniProt P29376). In words: Navigating the Kinome. Panel member name: LTK. It is filed as functional.
The target in a further assay is Activin receptor type-1 (Homo sapiens, UniProt Q04771). Put plainly: Navigating the Kinome. Panel member name: ACVR1. It is filed as functional.
Assay [27] concerns the target Cell division cycle 7-related protein kinase (Homo sapiens, UniProt O00311). Type of assay: functional.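 Also: value obtained from a kinome-wide kinase panel.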
Assay [28] has as its target Calcium/calmodulin-dependent protein kinase type II subunit alpha (Homo sapiens, UniProt Q9UQM7). In words: Navigating the Kinome. Panel member name: CAMK2A. Type of assay: functional.
Assay [29] deals with Mitogen-activated protein kinase 14 (Homo sapiens, UniProt Q16539). It is filed as functional.
Assay [30] deals with Leucine-rich repeat serine/threonine-protein kinase 2 (Homo sapiens, UniProt Q5S007). Type of assay: functional.
Leucine-rich repeat serine/threonine-protein kinase 2, sequence (Q5S007 whole entry): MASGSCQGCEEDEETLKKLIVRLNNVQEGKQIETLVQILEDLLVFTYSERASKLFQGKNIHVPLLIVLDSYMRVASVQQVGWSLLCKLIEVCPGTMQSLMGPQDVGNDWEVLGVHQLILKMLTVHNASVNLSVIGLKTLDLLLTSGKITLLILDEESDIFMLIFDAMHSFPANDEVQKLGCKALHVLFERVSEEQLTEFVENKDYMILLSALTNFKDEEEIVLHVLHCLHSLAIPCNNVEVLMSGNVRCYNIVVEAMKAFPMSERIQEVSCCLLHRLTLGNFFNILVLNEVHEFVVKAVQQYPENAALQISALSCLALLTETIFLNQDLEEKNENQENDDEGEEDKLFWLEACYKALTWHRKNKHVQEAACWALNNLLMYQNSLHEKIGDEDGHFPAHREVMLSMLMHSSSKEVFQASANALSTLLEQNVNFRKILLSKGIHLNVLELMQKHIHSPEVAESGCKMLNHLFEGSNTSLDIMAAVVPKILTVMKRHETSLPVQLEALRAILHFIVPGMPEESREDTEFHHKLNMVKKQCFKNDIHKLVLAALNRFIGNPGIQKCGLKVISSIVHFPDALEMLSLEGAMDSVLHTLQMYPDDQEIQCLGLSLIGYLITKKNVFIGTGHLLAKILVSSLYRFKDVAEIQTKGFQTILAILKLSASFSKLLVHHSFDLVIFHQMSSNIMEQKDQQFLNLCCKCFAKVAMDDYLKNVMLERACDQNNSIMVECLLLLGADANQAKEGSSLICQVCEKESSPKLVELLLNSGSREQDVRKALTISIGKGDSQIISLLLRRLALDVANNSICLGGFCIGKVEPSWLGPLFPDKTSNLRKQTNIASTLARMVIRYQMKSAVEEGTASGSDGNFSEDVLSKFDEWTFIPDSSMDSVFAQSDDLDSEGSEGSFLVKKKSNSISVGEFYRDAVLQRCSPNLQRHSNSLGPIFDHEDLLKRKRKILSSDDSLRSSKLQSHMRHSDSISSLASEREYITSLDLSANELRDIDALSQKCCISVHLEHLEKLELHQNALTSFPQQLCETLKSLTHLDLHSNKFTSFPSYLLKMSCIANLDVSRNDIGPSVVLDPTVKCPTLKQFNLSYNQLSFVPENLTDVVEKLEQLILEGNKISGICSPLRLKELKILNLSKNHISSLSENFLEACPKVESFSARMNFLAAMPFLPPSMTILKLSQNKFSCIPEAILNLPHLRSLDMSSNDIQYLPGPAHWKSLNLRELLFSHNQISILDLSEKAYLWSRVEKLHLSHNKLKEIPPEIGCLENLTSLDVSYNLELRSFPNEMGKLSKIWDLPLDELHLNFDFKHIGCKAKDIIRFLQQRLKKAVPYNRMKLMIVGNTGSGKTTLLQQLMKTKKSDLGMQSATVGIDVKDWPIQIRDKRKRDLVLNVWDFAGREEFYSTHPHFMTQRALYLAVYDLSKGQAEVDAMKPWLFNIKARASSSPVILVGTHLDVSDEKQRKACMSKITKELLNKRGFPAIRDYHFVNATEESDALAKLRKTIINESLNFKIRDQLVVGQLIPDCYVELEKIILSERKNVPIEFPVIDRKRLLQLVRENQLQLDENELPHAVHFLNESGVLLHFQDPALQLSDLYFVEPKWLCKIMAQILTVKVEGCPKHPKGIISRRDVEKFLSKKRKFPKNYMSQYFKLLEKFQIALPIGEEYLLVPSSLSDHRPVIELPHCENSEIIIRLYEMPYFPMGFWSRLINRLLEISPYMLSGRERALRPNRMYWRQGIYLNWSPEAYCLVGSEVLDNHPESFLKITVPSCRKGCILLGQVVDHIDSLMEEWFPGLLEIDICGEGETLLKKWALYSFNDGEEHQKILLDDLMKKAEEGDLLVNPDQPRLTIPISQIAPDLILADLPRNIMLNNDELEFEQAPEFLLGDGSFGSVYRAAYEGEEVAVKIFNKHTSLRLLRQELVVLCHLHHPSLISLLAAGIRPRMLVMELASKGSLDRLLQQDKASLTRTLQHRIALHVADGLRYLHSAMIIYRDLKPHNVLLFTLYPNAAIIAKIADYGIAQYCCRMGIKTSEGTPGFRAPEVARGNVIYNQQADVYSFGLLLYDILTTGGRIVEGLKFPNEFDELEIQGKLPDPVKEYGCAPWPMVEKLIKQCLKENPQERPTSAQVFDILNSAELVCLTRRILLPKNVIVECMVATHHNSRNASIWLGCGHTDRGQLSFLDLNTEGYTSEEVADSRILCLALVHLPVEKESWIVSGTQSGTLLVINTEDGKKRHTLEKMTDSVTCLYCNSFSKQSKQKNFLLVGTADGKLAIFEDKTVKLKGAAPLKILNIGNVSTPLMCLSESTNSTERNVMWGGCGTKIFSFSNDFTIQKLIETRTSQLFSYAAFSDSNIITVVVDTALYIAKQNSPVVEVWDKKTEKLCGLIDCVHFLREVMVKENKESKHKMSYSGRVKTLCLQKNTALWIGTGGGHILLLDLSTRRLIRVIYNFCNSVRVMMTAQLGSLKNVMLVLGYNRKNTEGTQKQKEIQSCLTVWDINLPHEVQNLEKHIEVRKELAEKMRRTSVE
In another assay the target is Aurora kinase A (Homo sapiens, UniProt O14965). It is filed as functional.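 Also: value from the Navigating the Kinome kinase panel profiling, panel entry STK6.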
Aurora kinase A, sequence (O14965 whole entry): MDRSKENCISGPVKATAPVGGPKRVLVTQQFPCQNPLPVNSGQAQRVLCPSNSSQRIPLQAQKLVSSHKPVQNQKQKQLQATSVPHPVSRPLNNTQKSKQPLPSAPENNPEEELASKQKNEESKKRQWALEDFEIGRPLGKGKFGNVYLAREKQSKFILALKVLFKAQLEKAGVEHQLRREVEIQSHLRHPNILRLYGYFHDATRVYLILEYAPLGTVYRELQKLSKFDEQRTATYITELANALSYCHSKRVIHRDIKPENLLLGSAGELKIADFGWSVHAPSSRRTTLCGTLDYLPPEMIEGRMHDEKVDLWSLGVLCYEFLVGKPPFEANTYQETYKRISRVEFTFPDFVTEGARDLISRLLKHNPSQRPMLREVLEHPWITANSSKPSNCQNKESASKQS
Assay [31] has as its target RAC-alpha serine/threonine-protein kinase (Homo sapiens, UniProt P31749). Type of assay: functional.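 Also: AKT1 affinity measured as one member of a kinome-wide kinase profiling panel.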
The target of assay [32] is Serine/threonine-protein kinase Chk1 (Homo sapiens, UniProt O14757). It is filed as functional.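 Also: measured as one member of a kinome-wide kinase profiling panel.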
The target in assay [33] is Mitogen-activated protein kinase 8 (Homo sapiens, UniProt P45983). It is filed as functional.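 Also: value comes from one member of a kinome-wide kinase profiling panel.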
For the next assay, the target named is Activated CDC42 kinase 1 (Homo sapiens, UniProt Q07912). Put plainly: Navigating the Kinome. Panel member name: ACK1. It is filed as functional.
For assay [34], the target named is Mitogen-activated protein kinase kinase kinase kinase 4 (Homo sapiens, UniProt O95819). It is filed as functional.
For assay [35], the target named is Testis-specific serine/threonine-protein kinase 2 (Homo sapiens, UniProt Q96PF2). It is filed as functional.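 Also: part of the Navigating the Kinome panel, target entry STK22B.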
Testis-specific serine/threonine-protein kinase 2, sequence (Q96PF2 whole entry): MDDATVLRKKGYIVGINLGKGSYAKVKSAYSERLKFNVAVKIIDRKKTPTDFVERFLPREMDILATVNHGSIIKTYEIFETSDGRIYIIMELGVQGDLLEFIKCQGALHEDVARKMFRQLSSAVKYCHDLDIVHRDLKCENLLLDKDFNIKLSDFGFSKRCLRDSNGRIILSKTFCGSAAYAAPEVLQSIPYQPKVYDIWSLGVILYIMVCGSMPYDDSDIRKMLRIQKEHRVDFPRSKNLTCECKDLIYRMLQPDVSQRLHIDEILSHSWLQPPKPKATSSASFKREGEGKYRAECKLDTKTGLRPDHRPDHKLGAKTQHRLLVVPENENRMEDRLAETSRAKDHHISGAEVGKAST
Assay [36] concerns the target Dual specificity tyrosine-phosphorylation-regulated kinase 1B (Homo sapiens, UniProt Q9Y463). Put plainly: Navigating the Kinome. Panel member name: DYRK1B. Type of assay: functional.
Assay [37] deals with Tyrosine-protein kinase FRK (Homo sapiens, UniProt P42685). It is filed as functional.
The target of assay [38] is Dual specificity protein kinase CLK2 (Homo sapiens, UniProt P49760). It is filed as functional.

SRSF protein kinase 1, sequence (Q96SB4 whole entry): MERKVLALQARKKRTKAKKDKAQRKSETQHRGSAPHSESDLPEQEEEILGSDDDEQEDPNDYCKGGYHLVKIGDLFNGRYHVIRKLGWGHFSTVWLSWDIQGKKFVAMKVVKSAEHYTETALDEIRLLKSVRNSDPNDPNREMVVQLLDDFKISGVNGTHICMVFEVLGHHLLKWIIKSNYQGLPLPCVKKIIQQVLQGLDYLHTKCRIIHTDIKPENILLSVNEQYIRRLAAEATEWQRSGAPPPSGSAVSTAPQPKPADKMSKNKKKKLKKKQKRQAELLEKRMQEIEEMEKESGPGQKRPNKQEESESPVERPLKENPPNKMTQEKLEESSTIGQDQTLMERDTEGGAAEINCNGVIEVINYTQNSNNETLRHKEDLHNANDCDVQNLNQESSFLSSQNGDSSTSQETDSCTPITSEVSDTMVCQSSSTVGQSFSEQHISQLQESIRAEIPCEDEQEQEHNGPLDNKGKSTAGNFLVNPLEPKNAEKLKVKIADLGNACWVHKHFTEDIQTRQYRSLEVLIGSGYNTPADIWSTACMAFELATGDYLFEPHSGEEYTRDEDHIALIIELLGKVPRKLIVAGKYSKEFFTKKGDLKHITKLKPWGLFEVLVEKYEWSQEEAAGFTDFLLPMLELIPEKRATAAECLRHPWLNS

For orientation: IC50 means the concentration needed to halve the response being measured. As for `Cc1ccc(/C=C2/C(=O)c3ccc(C(=O)O)cc3C2=O)o1`, the IC50 in assay [1] is > 128000 nM (inactive).
A word on the Ki: it is a measure of affinity in units of concentration, obtained from inhibition or displacement. Regarding `Clc1cc(NC2CCCCC2)nc(-c2c[nH]c3ncccc23)n1`, the Ki in assay [2] was > 2510 nM (inactive); in assay [3] it was 100 nM (active); in assay [4], > 1580 nM (inactive); in assay [5], > 2000 nM (inactive); in [6], > 2510 nM (inactive); in assay [7] it was > 3160 nM (inactive). For the same molecule, the Ki is 316 nM (active) in assay [8]; > 2000 nM (inactive) in assay [9]; 501 nM (active) in assay [10]; 631 nM (active) in assay [11]; 3980 nM (active) in [12]; 1260 nM (active) in [13]. Further, the Ki in assay [14] was 398 nM (active); in assay [15], > 1580 nM (inactive); in [16], 1580 nM (active); in assay [17], 3160 nM (active); in assay [18], > 5010 nM (inactive); in assay [19], > 1580 nM (inactive). The inhibitory constant (Ki) in assay [20] is 158 nM (active); in assay [21], > 1260 nM (inactive); in assay [22], 7940 nM (active); in [23], > 3980 nM (inactive); in assay [24], 1580 nM (active); at SRSF protein kinase 1 it was > 7940 nM (inactive). The Ki in assay [25] was > 2000 nM (inactive); in [26] it was > 2510 nM (inactive); at Activin receptor type-1 it was > 3980 nM (inactive); in [27], 2 nM (active); in assay [28], > 3160 nM (inactive); in assay [29] it was > 3980 nM (inactive). Also, the Ki is 2510 nM (active) in assay [30]; > 1580 nM (inactive) on Aurora kinase A; 2000 nM (active) in [31]; 1000 nM (active) in assay [32]; 2510 nM (active) in assay [33]; > 3980 nM (inactive) at Activated CDC42 kinase 1. For the same molecule, the Ki is > 200 nM (inactive) in assay [34]; > 1580 nM (inactive) in assay [35]; 501 nM (active) in assay [36]; > 2510 nM (inactive) in assay [37]; > 3160 nM (inactive) in assay [38].
